Our source for the melting point values is a melting point compilation (Tetko et al.; mined from patent text by program, amines drawn as free bases though some values may be those of a salt).

Residues, ends and D or L forms follow the SMILES beside them. *: point of attachment. Boc = CC(C)(C)OC(=O)*

On to `Nc1cc(C(=O)c2cccc(C(=O)c3ccc(F)c(N)c3)c2)ccc1F`, for which the melting point (commonly the temperature of the solid-liquid transition) lay in the range of 170 to 171 °C.

For the molecule `O=CCCc1c[nH]c2ccc(F)cc12`, the melting point was in the range of 79 to 80 °C. Molecule `O=C(Cl)c1cccc(Oc2ccc(S(=O)(=O)c3ccc(Oc4cccc(C(=O)Cl)c4)cc3)cc2)c1` had a melting point of 113 to 116 °C. To `CCCc1c(OC(C(=O)O)c2ccc(Cl)c(Cl)c2)ccc(C(C)=O)c1O` (stereo unspecified) belongs 177 to 180 °C. The figure for `Cc1nc(N)nc(N)c1-c1cc(NS(C)(=O)=O)ccc1Cl` is 234 to 240 °C; for `CC(C)(C)c1ccc(C(=O)Nc2ccc(N)cc2)cc1` it is 111 to 113 °C.

`Cc1ccc(C(=O)NCCC(=O)OCc2ccccc2)c(NC(=O)C(CCCNC(=N)N[N+](=O)[O-])NC(=O)OCc2ccccc2)c1` (stereo unspecified): the melting point lay within 154 to 156 °C. To `COC(=O)c1ccc(NC(=O)c2sc3ccc(OC)cc3c2SC(C)C)cc1` belongs 158 °C; to `CS(=O)(=O)c1ccc(-c2cnn(CC3CC3)c(=O)c2-c2ccc(F)cc2)cc1`, 118 to 121 °C; to `O=C(Nc1cnc(-c2ccccc2)[nH]c1=O)OCc1ccccc1`, 217 to 219 °C. To `CC(=O)NNC(=S)Nc1cc(C)ccc1Cl` belongs 145 to 157 °C. `CNc1nc2ccccc2n1CCOS(C)(=O)=O`: the melting point lay in the range of 48 to 50 °C. To `COCc1ncccc1CN(CCn1ccc2oc(C)cc2c1=O)Cc1ccc2c(c1)N(C)C(=O)C(C)(C)C(=O)N2C1CC1` belongs 146 to 148 °C. `CN(C(=O)CCCOc1ccc2[nH]c(=O)oc(=O)c2c1)C1CCCCC1` had a melting point of 222 to 224 °C. Molecule `CC1=Nc2ccccc2CC(c2ccc(C)s2)N1C` (stereo unspecified) registered a melting point of 139 to 140 °C. Molecule `CCOc1ccc(-c2[nH]c(-c3ccc([N+](=O)[O-])cc3)nc2C(=O)O)cc1` had a melting point of 148 to 152 °C. In the case of `COC(=O)C(Cc1ccccc1)NC(=O)C(Cc1ccccc1)NC(=O)C(CC(N)=O)NC(=O)CNC(=O)OC(C)(C)C` (stereo unspecified) (Boc-GNFF-OMe; configuration not given here), the melting point is 211 to 214 °C. `O=C(NCC12CC3CC(CC(C3)C1)C2)c1cc(-c2cccnc2N2CCC(C(=O)O)CC2)ccc1Cl` returned a melting point of 110 to 115 °C. The figure for `CCCCc1nc(-c2ccco2)n[nH]1` is 73 to 74 °C; for `COc1cc(OC)c2c(c1)S(=O)(=O)N(COC(=O)c1c(Cl)cccc1Cl)C2=O` it is 200 to 201 °C; for `CCCCCCN(C[C@@H]1CCCC[C@H]1CN(CCCCCC)C(=O)Nc1ccc(N(C)C)cc1)C(=O)Nc1ccc(N(C)C)cc1` (relative stereo) it is 112 to 117 °C. The figure for `CCOC(=O)C(CC)c1ccc(N2Cc3ccccc3C2=N)cc1` (stereo unspecified) is 157 to 159 °C; for `c1ccc2c(c1)Sc1ccccc1N2C1CN2CCC1CC2` (stereo unspecified) it is 160 to 162 °C; for `CCOC(=O)Nc1nc(-c2ccccc2)c(-c2nc3ccccc3c(=O)n2-c2cccc(Cl)c2)s1` it is 235 to 236 °C. The figure for `NC(=O)c1ccc(C(=O)O)c(N)c1` is 276 to 278 °C. The molecule `CC(C)(C)OC(=O)CN1C(=O)C=C(CC(NC(=O)OC(C)(C)C)C(=O)OC(C)(C)C)C1=O` (stereo unspecified) gave a melting point of 88.5 to 89.5 °C. To `O=C(Nc1cccc2[nH]ccc12)c1ccccc1OCCN1CCCCC1` belongs 154 °C.

As to `CCc1nc2c(N)nc3ccccc3c2n1CCCSC`, the melting point lay within 210 to 212 °C. To `Cc1nc(C)c(Cl)c(NCc2nccc(SCCCCN3CCNCC3)c2C)n1` belongs 143 to 145 °C.

With `NS(=O)(=O)c1ccc(-c2nc(-c3cnn4c(C(F)(F)F)cc(-c5ccc(C(F)(F)F)cc5)nc34)no2)cc1`, the melting point was 292 °C. On to `CC(=O)OCCn1c(C)c(C(=O)Nc2ccc(OCC(C)(C)C)c(C#N)c2)c2cc(F)ccc21`, for which the melting point was in the range of 124 to 125 °C. Turning to `COC(=O)CN(NC(N)=O)c1cc(C)cc(C)c1`, the melting point was 139 to 141 °C. The figure for `O=C1CCC(CCN2CCN(c3cc(C(F)(F)F)ccc3F)CC2)CC1` is 75 to 76 °C. Regarding `CC(C)(CO)C(O)(Cn1cncn1)c1ccc(F)cc1F` (single isomer, unassigned; (+)), the melting point fell in the range of 116 to 118 °C. To `NS(=O)(=O)c1cc2c(cc1Cl)C(=O)N(Cc1ccccn1)C2=O` belongs 240 to 242 °C.

Consider `COC(=O)CCCOc1ccc2ccc(O)cc2c1`, for which the melting point was 122 to 125 °C.

As to `COc1cc(CC(=O)O)ccc1OCCNC(=O)C1Cc2ccccc2N1S(=O)(=O)c1ccc(-c2cccc(C(F)(F)F)c2)cc1` (stereo unspecified), the melting point lay in the range of 89 to 98 °C. The figure for `O=C(O)c1cc(Cl)ccc1C(O)=NCc1ccccc1` is 117 to 119 °C. For `CC(=O)NC12CCC(CC1)C2(C)C`, the melting point lay in the range of 133 to 134 °C.

For `CCOC(=O)c1nnc2n1-c1sc(CC)cc1C(c1ccccc1Cl)=NC2`, the melting point is 138 to 140 °C. In turn, `CC(C)N(Cc1c(-c2ccccc2)sc(N)c1C(=O)c1ccc(Cl)cc1)C(C)C` had a melting point of 185 to 187 °C. As for `CCOC(=O)c1ccccc1-c1ccc(Nc2cc(CC)nc3ccnn23)cc1`, the melting point was 223 to 225 °C. For `CCCCOc1cc(/C=C(\OCC)C(=O)O)ccc1OCCc1ccc(OS(C)(=O)=O)c(OC)c1`, the melting point came out at 97 °C. The figure for `O=C(O)CCCCCCCCCCn1nnnc1S` is 95 to 98 °C; for `O=C(NCc1ccc(Cl)cc1)c1cnc2cc(Cl)ccc2c1O` it is 237 to 239 °C. To `Clc1ccc2nc(N3CCCCC3)nc(N3CCCCC3)c2c1` belongs 115 to 118 °C; to `C=C1C(=O)N(CC(=O)O)C(=O)N1Cc1cccc([N+](=O)[O-])c1`, 169 to 171 °C. `COC(=O)c1nc(-c2ccco2)cc(N)c1Cl` returned a melting point of 145 to 150 °C. The figure for `CC(C)(C)OC(=O)NC(CNC(=O)c1ccccc1)C(=O)O` (stereo unspecified) is 110 to 111 °C; for `COc1ccc(N2CCN(CCn3c(=O)[nH]c4sccc4c3=O)CC2)cc1` it is 249 to 251 °C; for `CCOC(=O)C(N)c1ccc(C(C)=O)cc1` (stereo unspecified) it is 77 to 78 °C. To `CC(n1cncn1)C(O)(Cn1cncn1)c1ccc(F)cc1` (stereo unspecified) belongs 103 to 106 °C; to `Cc1cc(C)c(-c2cn(C)c3c(O)ncnc23)c(C)c1`, 230 to 232 °C. Consider `CCOc1cc(O)nc(N(C)C)n1`, for which the melting point is 194 to 195 °C. Turning to `COC(=O)C(c1ccc(-c2ccccc2F)cc1)S(C)=O` (stereo unspecified), the melting point lay within 79 to 80 °C. The figure for `COc1cc2occ(-c3ccccc3)c(=O)c2c(Cl)c1Cl` is 216 to 218 °C; for `CCCCCCCc1ccc(NS(=O)(=O)c2ccc(N3CCNC3=O)cc2)cc1` it is 188 to 190 °C; for `COc1cccc(CCOc2ccc(C(=O)N/C(=C\c3ccc(Cl)cc3)C(=O)NCCO)cc2)c1` it is 54 to 56 °C. To `O=C(NCc1ccc(Cl)cc1)c1cnc2c(OCCO)cc(CCCO)cc2c1O` belongs 250 to 252 °C; to `O=C(c1cccc(O)c1)c1cccc(Cl)c1`, 104 °C; to `Cc1ccc(C(=O)Nc2ccccc2)cc1NC(=O)c1cc(Cl)cc(Cl)c1`, 202 to 205 °C.

The molecule `COC(=O)c1snc(-c2ccc(C#N)cc2)c1C(=O)OC` had a melting point of 134 to 135 °C. To `CCCCCCCCCCCc1coc(NC(=O)Nc2c(C(C)C)cccc2C(C)C)n1` belongs 104 to 108 °C; to `CCCCC(=O)Nc1ccc(N)cc1`, 81 to 83 °C. The figure for `Cc1ccc(Nc2c([N+](=O)[O-])ccc(Cl)c2C(=O)O)cc1` is 192 to 197 °C; for `Cc1nc2c(OCc3c(Cl)ccc(N(C)C(=O)Oc4ccc([N+](=O)[O-])cc4)c3Cl)cccn2c1Br` it is 229 to 230 °C; for `O=C(Cc1ccccc1)c1ccc(OC=C(F)F)cc1` it is 81 to 85 °C. The figure for `O=C(NC1(C2CC2)CC1)c1c(NC(=O)c2cc(C(F)(F)F)nn2-c2ncccc2Cl)c(Cl)cc2cn[nH]c12` is over 250 °C; for `CCOC(NC(=O)c1cccc(OC)c1)C(N)=O` (stereo unspecified) it is 143 to 144 °C; for `O=C1CCN(C(=O)c2cccs2)CC1` it is 81 to 83 °C. As for `CO[C@@H](C)[C@](C)(OC)c1cc(F)cc(OCc2ccc3ccccc3c2)c1` (racemic), the melting point lay in the range of 58 to 59 °C. To `O=C(O)c1cc(OCc2ccccc2)nn1-c1ccccc1` belongs 163 to 164 °C; to `CCSC1CN2CCC1CC2` (stereo unspecified), 101 to 102 °C. `C=C(C)COC(=O)N1CCN(c2c(C(=O)N3CCN(C)CC3)c3ccccc3n2-c2ccccc2)CC1` gave a melting point of 141 to 143 °C. The figure for `O=C(Nc1ccc(S(=O)(=O)Oc2ccccc2)cc1[N+](=O)[O-])NS(=O)(=O)Cl` is 190 °C. The figure for `CC(C)n1nc(-c2c(-c3ccccc3)nn3ccc(OCC(=O)Nc4ccccc4)cc23)ccc1=O` is 208 to 209 °C. To `CC1OC(n2cnc3c(N)nc(F)nc32)C(O)C1O` (stereo unspecified) belongs 244 to 245 °C; to `O=[N+]([O-])c1ccc(F)cc1CS(=O)(=O)c1cccc2ccccc12`, 155 to 160 °C; to `[N-]=[N+]=NCc1ccc2c(NC(=O)c3ccccc3)nccc2c1`, 125 to 129 °C. On to `CCOC(=O)C1(S(=O)(=O)c2ccc(OC)cc2)CCN(Cc2ccc(-c3ccccc3)cc2)CC1`, for which the melting point is 176 to 178 °C.

On to `COc1ccc(CNc2cc(C(=O)Nc3ccccc3)ccc2OC)cc1`, for which the melting point fell in the range of 173 to 174 °C. As to `COC(=O)c1n[nH]c(=O)c2cc(OC)ccc12`, the melting point lay in the range of 222 to 225 °C. Turning to `COC1C(OC(=O)c2ccc(N)cc2)C=C(C)C(=O)CC1(C)C` (stereo unspecified), the melting point fell in the range of 159 to 161 °C.

Consider `CC(=O)NCCSc1c(Cl)cc(N)c(C)c1N`, for which the melting point was determined as 111 °C. The figure for `CC(=O)Nc1ccc(C(=O)Nc2ccccc2NC(=O)CNC(=O)OC(C)(C)C)cc1` is 125 to 126 °C; for `O=C1c2c(O)cccc2C(C(=O)C2CCCCC2)c2cccc(O)c21` it is 220 °C.
